Results on 4 molecules are retold here after PMC10535856, “CD4^+ T Cell Responses to Toxoplasma gondii Are a Double-Edged Sword” (Vaccines, 2023).

Where no end group is shown, it is not given here.

For series [1], the system named is Toxoplasma gondii tachyzoites and encysted bradyzoites. Conditions: cited from earlier work.
Series [2] deals with CD4^+ T cells. To be noted: in vitro human PBMCs and in vivo mice; cited from earlier work. The text has this:
Vaccines that are composed of polypeptides that elicit epitope-restricted CD4^+ and CD8^+ T cells have the potential to induce an immune response against human toxoplasmic infection in humans. We are building a rational “immunosense” approach that utilizes epitope selection for peptides that can be presented by human major histocompatibility complexes (MHCs) to elicit protective CD8^+ and CD4^+ T cells. We have made considerable efforts to iden ...

For series [3], the target named is T1, I-A^b (Mus musculus, UniProt P14434+P14483).
T1 sequence (P14434 24-256): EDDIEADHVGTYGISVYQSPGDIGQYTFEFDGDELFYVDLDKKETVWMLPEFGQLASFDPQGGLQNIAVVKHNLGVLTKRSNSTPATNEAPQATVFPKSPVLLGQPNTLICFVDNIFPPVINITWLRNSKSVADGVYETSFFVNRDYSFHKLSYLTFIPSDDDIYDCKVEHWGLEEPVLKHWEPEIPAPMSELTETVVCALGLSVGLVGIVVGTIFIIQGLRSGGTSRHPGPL
T1 sequence (P14483 28-265): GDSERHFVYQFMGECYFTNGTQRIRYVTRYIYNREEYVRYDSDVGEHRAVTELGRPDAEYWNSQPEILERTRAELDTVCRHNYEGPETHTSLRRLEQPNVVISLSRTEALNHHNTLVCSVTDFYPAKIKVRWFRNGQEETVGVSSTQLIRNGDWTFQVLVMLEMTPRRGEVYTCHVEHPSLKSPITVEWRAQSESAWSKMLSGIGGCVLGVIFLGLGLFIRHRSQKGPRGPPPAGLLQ
Also on record: method as in PMID 7895164, PMID 32763137. To be noted: cited from earlier work.

For series [4], the system named is uninfected HLA-A*11:01 transgenic mice. In words: Mortality and tolerability after boost immunization. The class given is in vivo, mouse.
The target in series [5] is T1, I-A^b. In words: Competitive peptide binding to I-A^b. Conditions: competitive binding study, procedure of ref 51; 'bound weakly'.

Regarding `CCc1nc(N)nc(N)c1-c1ccc(Cl)cc1` [Pyrimethamine], in series [1], the “Activity against actively replicating tachyzoites” value is “effective against actively replicating tachyzoites” and the “Elimination of encysted bradyzoites” value is reported as “cannot eliminate encysted bradyzoites”.
For the molecule `Nc1ccc(S(=O)(=O)Nc2ncccn2)cc1` [sulfadiazine], in series [1], the “Activity against actively replicating tachyzoites” value was “effective against actively replicating tachyzoites” and the “Elimination of encysted bradyzoites” value is recorded as “cannot eliminate encysted bradyzoites”.
As for AKFVAAWTLKAAA [PADRE], in series [2], the “Generation of responsive CD4^+ T cells” value was “contributes to the generation of responsive CD4^+ T cells”. Also, in series [3], the “Affinity to I-A^b” value is on record as “relatively high affinity”.
By IC50 is commonly meant the midpoint of a concentration-inhibition curve. A low value points to greater potency in that assay. Turning to AVEIHRPVPGTAPPS [AS15, AVEIHRPVPGTAPPS], the “Harmful response to single components” value in series [4] (AS15 or GLA-SE alone) is on record as “neither AS15 nor GLA-SE alone elicit this harmful response”. Moreover, in series [4] (Figure S1, single components), the “Overall effect in summary cartoon” value was “No effect”. For the same molecule, the IC50 in series [5] worked out at 413 nM.
